{"source": "the NIST ThermoML archive (doi:10.1016/j.tca.2006.02.029)", "assay": "excess molar enthalpy (molar enthalpy of mixing); xn = mol fraction of the nth substance listed", "settings": "1065 K, 101 kPa, Liquid, Drop calorimetry", "note": "Numbers after ± are expanded uncertainties."}
{"smiles": "[Fe]", "note": "[iron] + [Sb]", "values": [{"measurement": "excess molar enthalpy", "setting": "x1 = 0.0023", "result": "0.0117 ± 0.000359", "unit": "kcal/mol"}, {"measurement": "excess molar enthalpy", "setting": "x1 = 0.0025", "result": "0.00933 ± 0.000335", "unit": "kcal/mol"}, {"measurement": "excess molar enthalpy", "setting": "x1 = 0.0049", "result": "0.0176 ± 0.000406", "unit": "kcal/mol"}, {"measurement": "excess molar enthalpy", "setting": "x1 = 0.0055", "result": "0.0233 ± 0.000478", "unit": "kcal/mol"}, {"measurement": "excess molar enthalpy", "setting": "x1 = 0.0075", "result": "0.0279 ± 0.000526", "unit": "kcal/mol"}, {"measurement": "excess molar enthalpy", "setting": "x1 = 0.008", "result": "0.0317 ± 0.00055", "unit": "kcal/mol"}, {"measurement": "excess molar enthalpy", "setting": "x1 = 0.0102", "result": "0.0359 ± 0.000598", "unit": "kcal/mol"}, {"measurement": "excess molar enthalpy", "setting": "x1 = 0.0114", "result": "0.0427 ± 0.000669", "unit": "kcal/mol"}, {"measurement": "excess molar enthalpy", "setting": "x1 = 0.0129", "result": "0.0455 ± 0.000693", "unit": "kcal/mol"}, {"measurement": "excess molar enthalpy", "setting": "x1 = 0.0135", "result": "0.0475 ± 0.000717", "unit": "kcal/mol"}, {"measurement": "excess molar enthalpy", "setting": "x1 = 0.0144", "result": "0.0535 ± 0.000765", "unit": "kcal/mol"}, {"measurement": "excess molar enthalpy", "setting": "x1 = 0.0148", "result": "0.0479 ± 0.000717", "unit": "kcal/mol"}, {"measurement": "excess molar enthalpy", "setting": "x1 = 0.0157", "result": "0.0538 ± 0.000765", "unit": "kcal/mol"}, {"measurement": "excess molar enthalpy", "setting": "x1 = 0.0187", "result": "0.0674 ± 0.000908", "unit": "kcal/mol"}, {"measurement": "excess molar enthalpy", "setting": "x1 = 0.0188", "result": "0.0624 ± 0.00086", "unit": "kcal/mol"}, {"measurement": "excess molar enthalpy", "setting": "x1 = 0.0232", "result": "0.079 ± 0.00103", "unit": "kcal/mol"}, {"measurement": "excess molar enthalpy", "setting": "x1 = 0.0271", "result": "0.0916 ± 0.00115", "unit": "kcal/mol"}, {"measurement": "excess molar enthalpy", "setting": "x1 = 0.029", "result": "0.0888 ± 0.00112", "unit": "kcal/mol"}, {"measurement": "excess molar enthalpy", "setting": "x1 = 0.0292", "result": "0.0913 ± 0.00115", "unit": "kcal/mol"}, {"measurement": "excess molar enthalpy", "setting": "x1 = 0.0316", "result": "0.105 ± 0.00129", "unit": "kcal/mol"}, {"measurement": "excess molar enthalpy", "setting": "x1 = 0.0359", "result": "0.118 ± 0.00141", "unit": "kcal/mol"}, {"measurement": "excess molar enthalpy", "setting": "x1 = 0.0407", "result": "0.131 ± 0.00155", "unit": "kcal/mol"}, {"measurement": "excess molar enthalpy", "setting": "x1 = 0.0442", "result": "0.131 ± 0.00155", "unit": "kcal/mol"}, {"measurement": "excess molar enthalpy", "setting": "x1 = 0.0445", "result": "0.128 ± 0.00153", "unit": "kcal/mol"}, {"measurement": "excess molar enthalpy", "setting": "x1 = 0.0455", "result": "0.145 ± 0.0017", "unit": "kcal/mol"}, {"measurement": "excess molar enthalpy", "setting": "x1 = 0.0591", "result": "0.165 ± 0.00189", "unit": "kcal/mol"}, {"measurement": "excess molar enthalpy", "setting": "x1 = 0.0609", "result": "0.168 ± 0.00191", "unit": "kcal/mol"}, {"measurement": "excess molar enthalpy", "setting": "x1 = 0.0762", "result": "0.201 ± 0.00225", "unit": "kcal/mol"}, {"measurement": "excess molar enthalpy", "setting": "x1 = 0.0765", "result": "0.204 ± 0.00227", "unit": "kcal/mol"}, {"measurement": "excess molar enthalpy", "setting": "x1 = 0.0942", "result": "0.229 ± 0.00263", "unit": "kcal/mol"}, {"measurement": "excess molar enthalpy", "setting": "x1 = 0.096", "result": "0.243 ± 0.00263", "unit": "kcal/mol"}, {"measurement": "excess molar enthalpy", "setting": "x1 = 0.1139", "result": "0.259 ± 0.00287", "unit": "kcal/mol"}, {"measurement": "excess molar enthalpy", "setting": "x1 = 0.1167", "result": "0.283 ± 0.00311", "unit": "kcal/mol"}, {"measurement": "excess molar enthalpy", "setting": "x1 = 0.1336", "result": "0.313 ± 0.00335", "unit": "kcal/mol"}, {"measurement": "excess molar enthalpy", "setting": "x1 = 0.1353", "result": "0.299 ± 0.00311", "unit": "kcal/mol"}]}
